Reference: patent EP0755382B1, “QUINOLONE DERIVATIVE FOR TREATMENT OF URINARY INCONTINENCE” (AstraZeneca AB, priority 1994, dated 1995)

Legend:
[1] = test system: guinea pig detrusor strips; assay: second in vitro test: relaxation of guinea pig bladder detrusor strips contracted with 80 mM KCl; type: cell-based, guinea pigs; conditions: for potency in the second test compared with the first test: 80 mM KCl (second test) versus 15 mM KCl (first test)
Description: This second in vitro test is similar to the one described above with regard to tissue preparation and data acquisition. However, the following exceptions are noted. In this second test, the contraction of the detrusor strips during priming and after the equilibration period is achieved with 80 mM instead of 15 mM KCl (total concentration in the bath).
Typical calcium channel blockers like nifedipine, nimodipine, isradipine, and verapamil are able to relax and reduce the myogenic activity of guinea pig detrusor strips in both tests by virtue of their blocking action on calcium channels.

intestinal smooth muscle = conditions: Vitolinya et al, Khim.-Farm. Zh., 15(1), 39-42, 1981; cited from earlier work
urinary incontinence = conditions: preliminary clinical trial; Nurse et al., British Journal of Urology (1991), 68, 27-31; cited from earlier work
[2] = test system: guinea pig detrusor strips; assay: first in vitro test: relaxation of guinea pig bladder detrusor strips contracted with 15 mM KCl; type: cell-based, guinea pigs; conditions: Cavia porcellus
Excerpt: The actions of the compound as a smooth muscle relaxant useful as a therapeutic agent for the treatment of urinary incontinence through its action to open potassium channels and hyperpolarize the membrane potential in the bladder detrusor smooth muscle can be shown using suitably designed in vitro tests, such as the one described following. […] "IC50" is a well understood term and means the concentration of test compound which causes a 50% decrease in the in vitro contraction of the bladder tissue described in the following test.
Hale albino Hartley guinea pigs (450-500g) are sacrificed by carbon dioxide induced asphyxiation and quickly exsanguinated. The lower abdominal cavity is opened and the urinary bladder isolated. The bladder is cleaned of surrounding connective and adipose tissue, and the portion above the ureteral orifices is removed and washed in Krebs-Henseleit buffer solution of the following composition (in mH): NaCl 118.0, KCl 4.7, […] 1.2, KH2PO4 1.2, CaCl2 2.5, NaHCO3 25.0 and d-glucose 11.1. The solution is warmed to 37°C and gassed with 95% O2 and 5% CO2. […]
When the tissue relaxes to a steady state after the final washing, 15 mM KCl is again applied. […] The effect of the compound at each dose is expressed as % of the maximum inhibitory response, which is further normalized with respect to the corresponding effect of the compound vehicle control. […]

bladder = assay: in vivo test in conscious catheterized rats: interval between bladder contractions, heart rate and MAP after oral dosing; parameters: species or system Wistar rats; conditions: dosed orally, 3 mg/kg
Description: Hale Wistar rats (400 - 500 g) are anesthetized with 50 mg/kg Nembutal, i.p. For each rat, the abdominal region and the front and back of the neck are shaved and povidone-iodine is applied to the skin. For carotid catheterization, the left carotid artery is exposed via a small ventral cervical incision. The exposed area is flushed with a 2% lidocaine HCl solution to relax the vessel. The catheter, filled with 0.9% saline, is introduced approximately 2.4 cm into the artery so that its tip resided in the aortic arch. The distal end of the catheter is exteriorized at the nape of the neck, filled with heparin (1000 units/ml) and heat sealed. For bladder catheterization, the bladder is exposed through a midline abdominal incision. […]
The rats are weighed, orally sham-dosed (dosing needle introduced, but no fluid expelled), and transvesical saline infusion (.18 ml/min) is begun and continued throughout the experiment. Variations in blood pressure, heart rate, intravesical pressure and urine output are recorded on either a Grass Polygraph or a Gould TA4000 recording system. […] At this point, a basal level of each experimental parameter is recorded and the rats are administered by oral gavage the appropriate dose of compound (in a 75% PEG 400 - saline vehicle) in concentrations such that the volume is 1 ml/kg body weight. […]

COc1ccc(Cc2nccc3cc(OC)c(OC)cc23)cc1OC [papaverine]
sustained tension after high KCl stimulation ([1]; 80 mM KCl, 300 µM): totally abolished

CC1=C(C#N)C(c2ccccc2)C2=C(CC(C)(C)CC2=O)N1 (centres unmarked) [3-Cyano-4-phenyl-2,7,7-trimethyl-4,6,7,8-tetrahydro-5(1H)-quinolone]
effect on the cardiovascular system (intestinal smooth muscle): hypotensive properties | spasmogenic effect of acetylcholine and barium chloride on intestinal smooth muscle (intestinal smooth muscle): capable of blocking the spasmogenic effect

CC1(C)Oc2ccc(C#N)cc2C(N2CCCC2=O)C1O (centres unmarked) [cromakalim]
treatment of urinary incontinence (urinary incontinence): effective | IC50 ([2]; first test): 0.6 to 0.9 µM | relaxant activity ([1]; second test, 80 mM KCl, at concentrations as high as 30 µM): insignificant relaxant activity

COc1ccc(CCN(C)CCCC(C#N)(c2ccc(OC)c(OC)c2)C(C)C)cc1OC (centres unmarked) [verapamil]
potency in the second test compared with the first test [1]: more potent in the second test

N#Cc1cccc([C@@H]2C=C(C(F)(F)F)NC3=C2C(=O)CCC3)c1 [The compound, (S)-(-)-4-(3-Cyanophenyl)-2-trifluoromethyl-4,6,7,8-tetrahydro-5(1H)-quinolone]
activity and selectivity for the bladder (bladder): active and selective for the bladder without significant cardiovascular effects | IC50 ([2]; concentration causing a 50% decrease in the in vitro contraction of the bladder tissue): 4.2 µM | IC50 ([1]; Cavia porcellus, second test, 80 mM KCl): 41.1 µM

COC(=O)C1=C(C)NC(C)=C(C(=O)OC(C)C)C1c1cccc2nonc12 (centres unmarked) [isradipine]
potency in the second test compared with the first test [1]: more potent in the second test
